In ChEMBL document CHEMBL5352505, “Targeting MET: Discovery of Small Molecule Inhibitors as Non-Small Cell Lung Cancer Therapy” (J Med Chem, 2023):

Tests used:
NCI-H460 = experiment: Antiproliferative activity against human NCI-H460 cells assessed as inhibition of cell growth measured after 48 hrs by MTS assay; format: functional, cell-based; settings: NCI-H460, 48 h
A549 [1] = experiment: Antiproliferative activity against human A549 cells assessed as inhibition of cell growth measured after 48 hrs by MTS assay; format: functional, cell-based; settings: A549, 48 h
NCI-H441 = experiment: Antiproliferative activity against human NCI-H441 cells assessed as inhibition of cell growth measured after 48 hrs by MTS assay; format: functional, cell-based; settings: NCI-H441, 48 h
MKN-45 [2] = experiment: Antiproliferative activity against human MKN-45 cells assessed as inhibition of cell growth measured after 48 hrs by MTS assay; format: functional, cell-based; settings: MKN-45, 48 h
[3] = Metabolic stability in rat liver microsomes assessed as half life; format: ADME, Microsome
[4] = Metabolic stability in mouse liver microsomes assessed as half life; format: ADME, Microsome
MHCC97H = experiment: cells; settings: Homo sapiens, 72 h
[5] = Metabolic stability in human liver microsomes assessed as half life; format: ADME, Microsome
NCI-H1703 = experiment: Antiproliferative activity against human NCI-H1703 cells assessed as inhibition of cell growth; format: functional, cell-based
NCI-H1993 = experiment: Antiproliferative activity against human NCI-H1993 cells assessed as inhibition of cell growth; format: functional, cell-based
A549 [6] = experiment: Antiproliferative activity against human A549 cells assessed as inhibition of cell growth; format: functional, cell-based
MKN-45 [7] = experiment: cells; settings: Homo sapiens
EBC-1 [8] = experiment: cells; settings: Homo sapiens
[9] = Oral bioavailability in mouse; format: ADME, organism-based; settings: in vivo
[10] = biological target: T1, Hepatocyte growth factor receptor (Homo sapiens, UniProt P08581); experiment: Inhibition of human GST tagged c-Met CD expressed in Sf9 cells using poly(Glu:Tyr) as substrate incubated for 5 mins in presence of ATP by horseradish peroxidase based ELISA method
EBC-1 [11] = experiment: Antiproliferative activity against human EBC-1 cells assessed as inhibition of cell growth measured after 3 days by CellTiter-Glo assay; format: functional, cell-based; settings: EBC-1, 72 h
Hs746T [12] = experiment: Antiproliferative activity against human Hs746T cells assessed as inhibition of cell growth measured after 4 days by CellTiter-Glo assay; format: functional, cell-based; settings: 96 h
CT26 = experiment: Antiproliferative activity against CT26 cells assessed as inhibition of cell growth; format: functional, cell-based; settings: Mus musculus
MKN-45 [13] = experiment: Antiproliferative activity against human MKN-45 cells assessed as inhibition of cell growth measured after 72 hrs by CellTiter-Glo assay; format: functional, cell-based; settings: MKN-45, 72 h
EBC-1 [14] = experiment: Antiproliferative activity against human EBC-1 cells assessed as inhibition of cell growth measured after 72 hrs by CellTiter-Glo assay; format: functional, cell-based; settings: EBC-1, 72 h
[15] = biological target: T1, Hepatocyte growth factor receptor; experiment: Inhibition of MET (unknown origin)
SNU-5 = experiment: cells; settings: Homo sapiens
Hs746T [16] = experiment: cells; settings: Homo sapiens
GTL 16 cell line = experiment: Antiproliferative activity against human GTL 16 cell line assessed as inhibition of cell growth; format: functional, cell-based
MKN-45 [17] = experiment: Antiproliferative activity against human MKN-45 cells assessed as inhibition of cell growth measured after 72 hrs by Cell Titer blue assay; format: functional, cell-based; settings: MKN-45, 72 h

SMILES: O=C1NC(=O)[C@@H](c2cn3c4c(cccc24)CCC3)[C@@H]1c1c[nH]c2ccccc12 [TIVANTINIB]
- IC50 (NCI-H460): 600 nM
- IC50 (A549 [1]): 590 nM
- IC50 (NCI-H441): 300 nM
- IC50 (MKN-45 [2]): 580 nM

SMILES: C[C@H](c1cccc(-c2ncc(OCC3CCN(C)CC3)cn2)c1)n1cc(-c2cc(C#N)ccn2)cc(F)c1=O
- half-life [3]: 36.5 min
- half-life [4]: 49.1 min
- IC50 (MHCC97H): 8.8 nM
- half-life [5]: 62.1 min

SMILES: Cc1ccc(C(=O)Nc2ccc(Oc3cc4cnn(C)c4cc3-c3cn[nH]c3)c(F)c2)c(=O)n1-c1ccc(F)cc1 [MERESTINIB]
- IC50 (NCI-H1703): 72.9 nM
- IC50 (NCI-H1993): 9.28 nM
- IC50 (A549 [6]): 628 nM

SMILES: Cn1cc(-c2ccc3nnc(C(F)(F)c4ccc5ncccc5c4)n3n2)cn1 [JNJ-38877605]
- IC50 (MKN-45 [7]): 18.6 nM
- IC50 (EBC-1 [8]): 8.4 nM

SMILES: [2H]C([2H])[C@]([2H])(c1cccc(-c2ncc(OCC3CCN(C)CC3)cn2)c1)n1nc(-c2cccc(C#N)c2)ccc1=O
- IC50 (MHCC97H): 37 nM
- bioavailability [9]: 104%

SMILES: Cc1[nH]c(/C=C2\C(=O)Nc3ccc(S(=O)(=O)N(C)c4cccc(Cl)c4)cc32)c(C)c1C(=O)N1CCN(C)CC1
- IC50 [10]: 10 nM

SMILES: CC(C)(O)CN1CCC(COc2cnc(-c3cccc(Cn4c(=O)ccn5c6cc(C#N)ccc6nc45)c3)nc2)CC1
- IC50 (EBC-1 [11]): 4.81 nM
- bioavailability [9]: 82.3%
- IC50 (Hs746T [12]): 1.5 nM

SMILES: COc1cc2c(Oc3ccc(-c4cnc(Nc5ccc(F)cc5)n(C)c4=O)nc3)ccnc2cc1OCCCN1CCOCC1
- IC50 (CT26): 59 nM

SMILES: Fc1ccc(Cl)c(C2(c3n[nH]c4ncc(-c5cnn(C6CCNCC6)c5)cc34)CC2)c1Cl
- IC50 (MKN-45 [13]): 670 nM
- IC50 (EBC-1 [14]): 1190 nM

SMILES: C[C@H]1CNC(=O)c2c(N)nn3ccc(nc23)NCc2c(ccc(F)c2C#N)O1
- IC50 (MKN-45 [7]): 297 nM

SMILES: COc1ccc2c(Oc3ccc(NC(=O)c4c(C)n(CC(C)(C)O)n(-c5ccccc5)c4=O)nc3)ccnc2c1
- IC50 [15]: 2 nM

SMILES: CN1CCN(Cc2ccc(-c3cnc(N4CCOC(Cn5nnc6ncc(-c7cnn(C)c7)nc65)C4)nc3)cc2)CC1 (centres undefined)
- IC50 (MKN-45 [7]): 3.18 nM
- IC50 (SNU-5): 4.34 nM
- IC50 (EBC-1 [8]): 2.22 nM
- IC50 (Hs746T [16]): 2 nM

SMILES: Cc1c(C(=O)Nc2ccc(Oc3ccnc4cc(OCC(C)(C)O)ccc34)c(F)c2)c(=O)n(-c2ccccc2)n1C [NINGETINIB]
- IC50 (MKN-45 [7]): 7 nM
- IC50 (SNU-5): 60 nM
- IC50 (Hs746T [16]): 140 nM

SMILES: [O-][S+](c1c(Cl)ccc(F)c1Cl)c1c[nH]c2ncc(-c3cnn(C4CCNCC4)c3)cc12 (centres undefined)
- IC50 (MKN-45 [13]): 1490 nM
- IC50 (EBC-1 [14]): 1590 nM

SMILES: CCN1Cc2c(ccc(F)c2C#N)O[C@H](C)CNC(=O)c2c(N)nn3ccc1nc23
- IC50 (MKN-45 [7]): 251 nM

SMILES: CCN1Cc2c(ccc(F)c2C#N)O[C@@H](C)CNC(=O)c2c(N)nn3ccc1nc23 [ELZOVANTINIB]
- IC50 (MKN-45 [7]): 0.2 nM
- IC50 (SNU-5): 0.17 nM

SMILES: CCOc1ccn(-c2ccc(F)cc2)c(=O)c1C(=O)Nc1ccc(Oc2ccnc(N)c2Cl)c(F)c1 [BMS-777607]
- IC50 (GTL 16 cell line): 100 nM

SMILES: C[C@@H](Oc1cc(C(=O)Nc2ccc(C(=O)N3CCN(C)CC3)cc2)nnc1N)c1c(Cl)ccc(F)c1Cl
- IC50 (MKN-45 [17]): 150 nM

SMILES: [2H]c1ccc2cc(C(F)(F)c3nnc4ccc(-c5cnn(C)c5)nn34)ccc2n1
- IC50 (MKN-45 [7]): 25 nM
- IC50 (EBC-1 [8]): 17 nM

SMILES: CN1CCN(C2CCN(C(=O)Nc3cc(Oc4ccc(NC(=O)C5(C(=O)Nc6ccc(F)cc6)CC5)c(F)c4)ccn3)CC2)CC1 [GOLVATINIB]
- IC50 (MKN-45 [7]): 37 nM
- IC50 (SNU-5): 6.2 nM
- IC50 (EBC-1 [8]): 24 nM
- IC50 (Hs746T [16]): 23 nM
